From ChEMBL document CHEMBL1201862, “PubChem BioAssay data set” (2004)
The source made the active and inactive calls.

Experiments:
[1] = antiviral protection against BTV-induced cell death – arbovirus, BSR cells, confirmation (AID 1250); format: functional;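 note: protection from viral cytopathic effect measured as cell viability by ATP luminescence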
[2] = target: T1, Neuropeptide Y receptor type 2 (Homo sapiens, UniProt P49146); test: IC50 for human NPY-Y2 blockade – cell-based, counter-screen for NPY-Y1 antagonist project, dose response (AID 1278); format: functional
T1 sequence (P49146 whole entry): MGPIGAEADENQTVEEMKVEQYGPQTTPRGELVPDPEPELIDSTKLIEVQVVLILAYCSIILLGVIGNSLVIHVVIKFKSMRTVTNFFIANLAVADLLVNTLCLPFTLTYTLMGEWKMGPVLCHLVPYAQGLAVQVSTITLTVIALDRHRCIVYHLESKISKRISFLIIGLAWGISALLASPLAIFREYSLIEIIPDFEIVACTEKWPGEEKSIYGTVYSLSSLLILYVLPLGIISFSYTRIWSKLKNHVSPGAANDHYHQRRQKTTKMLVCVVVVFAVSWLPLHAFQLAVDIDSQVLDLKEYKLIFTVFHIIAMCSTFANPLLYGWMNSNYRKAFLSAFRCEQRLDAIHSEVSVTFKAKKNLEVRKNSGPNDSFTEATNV

[3] = target: T2, Neuropeptide Y receptor type 1 (Homo sapiens, UniProt P25929); test: IC50 of human NPY-Y1 blockers – cell-based, dose response (AID 1277); format: functional
T2 sequence (P25929 whole entry): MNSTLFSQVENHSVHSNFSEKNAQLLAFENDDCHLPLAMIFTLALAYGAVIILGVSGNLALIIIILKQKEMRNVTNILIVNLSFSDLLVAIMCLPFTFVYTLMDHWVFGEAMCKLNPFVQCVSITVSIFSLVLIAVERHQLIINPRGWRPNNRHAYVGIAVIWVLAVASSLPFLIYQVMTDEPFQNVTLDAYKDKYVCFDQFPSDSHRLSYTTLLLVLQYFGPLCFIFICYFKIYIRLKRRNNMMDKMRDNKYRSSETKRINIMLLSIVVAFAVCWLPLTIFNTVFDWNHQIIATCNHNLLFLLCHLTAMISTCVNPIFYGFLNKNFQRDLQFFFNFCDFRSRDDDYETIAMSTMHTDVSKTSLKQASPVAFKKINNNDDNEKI

[4] = target: T3, Heat shock factor protein 1 (Mus musculus, UniProt P38532); test: decrease of HSF1-responsive luciferase luminescence – cell-based, NIH3T3, dose retest, confirmation (AID 2382); format: functional;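 note: NIH3T3 fibroblasts with HSF1-driven luciferase reporter stressed by proteasome inhibitor MG132; luminescence from HSF1-driven luciferase expression after 8 hours of MG132 stress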
T3 sequence (P38532 whole entry): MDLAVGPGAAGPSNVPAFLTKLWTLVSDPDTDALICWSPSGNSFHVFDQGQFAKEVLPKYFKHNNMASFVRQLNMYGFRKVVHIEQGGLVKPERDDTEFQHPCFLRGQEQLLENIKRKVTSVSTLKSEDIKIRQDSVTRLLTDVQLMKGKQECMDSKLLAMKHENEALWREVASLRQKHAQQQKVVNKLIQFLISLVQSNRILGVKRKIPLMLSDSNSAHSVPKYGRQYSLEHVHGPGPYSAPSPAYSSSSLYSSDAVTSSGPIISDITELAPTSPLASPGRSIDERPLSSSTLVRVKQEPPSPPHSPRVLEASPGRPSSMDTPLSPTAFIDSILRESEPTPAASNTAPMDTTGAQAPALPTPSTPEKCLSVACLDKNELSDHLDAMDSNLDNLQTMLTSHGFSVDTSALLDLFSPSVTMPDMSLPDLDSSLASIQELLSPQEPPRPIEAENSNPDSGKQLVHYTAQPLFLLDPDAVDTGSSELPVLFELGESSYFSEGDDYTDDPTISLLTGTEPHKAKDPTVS

[5] = target: T2, Neuropeptide Y receptor type 1; format: functional
[6] = target: Glyceraldehyde-3-phosphate dehydrogenase (Homo sapiens, UniProt P04406)
Bcl-2-related protein A1 [7] = target: T4, Bcl-2-related protein A1 (Mus musculus, UniProt Q07440); test: small-molecule antagonists of Bfl-1/BH3 interaction – biochemical, TR-FRET, mouse Bfl-1, confirmation (AID 621);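 note: TR-FRET binding of GST-Bfl-1 to FITC-labelled Bid peptide via terbium antibody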
T4 sequence (Q07440 whole entry): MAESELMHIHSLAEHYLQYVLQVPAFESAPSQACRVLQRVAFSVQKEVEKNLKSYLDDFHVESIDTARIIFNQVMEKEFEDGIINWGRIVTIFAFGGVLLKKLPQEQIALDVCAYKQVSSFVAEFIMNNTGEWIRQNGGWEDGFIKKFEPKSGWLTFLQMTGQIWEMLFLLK

Bcl-2-related protein A1 [8] = target: T4, Bcl-2-related protein A1; test: Bfl-1 binding inhibitors, SAR follow-up, biochemical, fluorescence polarization (AID 1070)
[9] = NIH-3T3 fibroblast cytotoxicity, dose response, cytotoxicity control, cell-based, fluorescence, Alamar Blue, secondary assay (AID 2327); format: functional;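 note: NIH-3T3 mouse fibroblasts cultured with fluconazole at 8 µg/mL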
[10] = HEK-293T cell viability reduction – luminescence, B-cell screen hits, cytotoxicity control for BCR NF-kB inhibitor project, dose response (AID 489021); format: functional, cell-based;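 note: HEK-293T cells carrying an NF-kB luciferase reporter; cells exposed to compound for about 14 hours before viability readout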
[11] = fluconazole-exposed Candida albicans growth modulators – fluorescence, retest, confirmation (AID 2467); format: functional, cell-based
INS1 = test: INS-1E survival protection against cytokine death – cell-based, luminescence, retest, dose response (AID 449756); format: functional; details: Rattus norvegicus;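 note: cell death triggered by IL-1 beta plus TNF-alpha plus IFN-gamma mixture; protective hits raise ATP signal compared with cytokine alone wells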
[12] = target: Acyl-homoserine lactone acylase PvdQ (Pseudomonas aeruginosa (strain LESB58), UniProt Q9I194); test: PvdQ acylase enzyme activity blockers – biochemical, fluorescence, plate reader and imaging, cherry-picks, dose response (AID 493231)
Estrogen receptor beta = Estrogen receptor beta (Homo sapiens, UniProt Q92731);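 note: recombinant ER-beta bound to coactivator SRC1 peptide in presence of estradiol agonist; inhibitors block coactivator peptide binding and lower the FRET signal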
[13] = target: T5, Microphthalmia-associated transcription factor (Homo sapiens, UniProt O75030); test: reducers of TRPM1 reporter luminescence, concentration series – cell-based, SK-MEL-5, cherry-picked, set 3, MITF inhibitor project, dose response (AID 493073); format: functional;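 note: SK-MEL-5 melanoma cells with luciferase driven by the MITF target TRPM1 promoter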
T5 sequence (O75030 whole entry): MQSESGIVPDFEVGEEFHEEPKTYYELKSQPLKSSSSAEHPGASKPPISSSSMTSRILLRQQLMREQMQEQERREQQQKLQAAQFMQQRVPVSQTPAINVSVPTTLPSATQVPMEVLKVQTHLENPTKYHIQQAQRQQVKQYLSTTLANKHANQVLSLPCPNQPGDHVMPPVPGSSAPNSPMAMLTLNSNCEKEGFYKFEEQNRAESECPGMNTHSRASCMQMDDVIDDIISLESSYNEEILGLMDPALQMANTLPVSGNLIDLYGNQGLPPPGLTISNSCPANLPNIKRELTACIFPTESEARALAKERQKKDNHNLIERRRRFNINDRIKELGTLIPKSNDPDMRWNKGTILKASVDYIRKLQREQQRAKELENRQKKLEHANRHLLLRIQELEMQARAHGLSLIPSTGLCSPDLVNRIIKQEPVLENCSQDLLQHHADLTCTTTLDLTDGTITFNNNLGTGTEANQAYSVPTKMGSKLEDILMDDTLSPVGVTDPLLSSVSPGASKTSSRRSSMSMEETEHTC

[14] = target: Neurotensin receptor type 1 (Homo sapiens, UniProt P30989); format: functional;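 note: Image-based confirmatory dose-response assay measuring agonist activity at NTR1; NTR1-expressing U2OS osteosarcoma cells imaged for beta-arrestin GFP spot formation; agonist potency where compounds increase beta-arrestin recruitment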
NADPH oxidase 1 = NADPH oxidase 1 (Homo sapiens, UniProt Q9Y5S8); format: functional, cell-based;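 note: Cell-based assay with luminescence read-out, IC50 derived from inhibitor dose-response curves; intracellular ROS from endogenous NOX1 in intact HT29 colon cancer cells; potency of inhibitors that lower the ROS luminescence signal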
[15] = tested on: Streptococcus sp. 'group A'; test: Streptococcus pyogenes SK(-)GAS viability under kanamycin – luminescence, BacTiterGlo, confirmation, counter-screen for streptokinase expression inhibitor project, dose response (AID 1900); format: functional, organism-based
[16] = Luminescence-based counterscreen assay for KLF5 inhibitors: dose response cell-based high throughput screening assay to identify cytotoxic compounds using the IEC-6 intestinal epithelial cell line. [Related pubchem assays: 1700 (Primary screen.), 1834 (Confirmation screen.), 1858 (Summary AID.), 1905 (Counterscreen.)]; format: functional
Streptococcus = test: GAS UMAA2166 growth inhibition – luminescence, BacTiterGlo, counter-screen for streptokinase expression inhibitor project, dose response (AID 1915); format: functional, organism-based;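 note: potency for reduction of bacterial viability or growth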
[17] = target: Luciferin 4-monooxygenase (Photinus pyralis, UniProt P08659); test: Counter Screen for Luciferase-based Assay Positives. [Related pubchem assays: 620, 618, 411 ]
HT-1080 = test: HT1080 cell viability loss – fluorescence readout (AID 620); format: functional, cell-based; details: Homo sapiens
Estrogen receptor = target: T6, Estrogen receptor (Homo sapiens, UniProt P03372); test: ERα coactivator recruitment enhancers – biochemical, TR-FRET, ERα LBD, dose response (AID 737)
T6 sequence (P03372 whole entry): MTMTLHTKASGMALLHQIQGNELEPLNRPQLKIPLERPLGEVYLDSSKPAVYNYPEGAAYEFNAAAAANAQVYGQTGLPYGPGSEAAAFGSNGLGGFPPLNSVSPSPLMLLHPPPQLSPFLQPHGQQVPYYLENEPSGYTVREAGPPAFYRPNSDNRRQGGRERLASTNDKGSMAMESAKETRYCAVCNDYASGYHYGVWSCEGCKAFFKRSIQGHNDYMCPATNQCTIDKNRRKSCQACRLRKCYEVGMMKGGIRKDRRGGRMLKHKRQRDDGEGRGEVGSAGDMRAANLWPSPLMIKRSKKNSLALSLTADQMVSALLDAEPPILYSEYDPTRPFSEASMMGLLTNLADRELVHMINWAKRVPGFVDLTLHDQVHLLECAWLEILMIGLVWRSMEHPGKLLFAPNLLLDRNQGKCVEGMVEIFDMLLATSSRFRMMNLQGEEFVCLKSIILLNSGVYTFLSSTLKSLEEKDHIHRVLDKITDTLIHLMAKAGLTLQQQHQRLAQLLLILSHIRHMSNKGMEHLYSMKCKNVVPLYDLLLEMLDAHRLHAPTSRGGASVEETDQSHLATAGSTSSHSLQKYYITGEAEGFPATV

X-box-binding protein 1 = X-box-binding protein 1 (Homo sapiens, UniProt P17861); format: functional, Cricetulus griseus;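 note: confirmatory dose-response counter-screen serving a CHOP assay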
[18] = viability loss in human Jurkat cells – cell-based, luminescence, cytotoxicity control for P. falciparum gametocyte viability project, dose response (AID 1117277); format: functional;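 note: potency reflects loss of cellular ATP meaning fewer viable cells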
[19] = viability inhibitors of stage V gametocytes – luminescence, dose response (AID 1117278); format: functional, cell-based;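 note: gametocytes exposed to compound for 24 hours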

COc1ccc(S(=O)(=O)N2CCN(c3ccccc3OC)CC2)cc1OC
IC50 [1]: 23.3 µM (active)

CCC(C)(C(=O)NC1CCCCC1)N(Cc1ccco1)C(=O)Cc1cccs1 (stereo unspecified)
IC50 [2]: > 35 µM (not active) | IC50 [3]: 12.3 µM (not active)

Cc1cccc(CSCCNC(=O)COc2ccc(Cl)cc2)c1
EC50 [4]: > 195 µM (not active) | IC50 [5]: 13.3 µM (not active)

COc1cccc(N2CCN(C3=C(Cl)C(=O)N(c4ccc(Cl)c(Cl)c4)C3=O)CC2)c1
IC50 [6]: > 100 µM (not active) | IC50 (Bcl-2-related protein A1 [7]): 4.83 µM (active) | IC50 (Bcl-2-related protein A1 [8]): 1.26 µM (active)

C[C@@H]1CN(C2=C(Cl)C(=O)N(c3ccc(Cl)c(Cl)c3)C2=O)[C@@H](C)CN1
IC50 [6]: > 100 µM (not active) | IC50 (Bcl-2-related protein A1 [7]): 8.29 µM (active) | IC50 (Bcl-2-related protein A1 [8]): 15.9 µM (active)

Cc1ccc(-[n+]2c(-c3ccccc3)cn3c2CCc2ccccc2-3)c(C)c1
EC50 [9]: 96.9 µM (active) | IC50 [2]: 5.9 µM (active) | IC50 [10]: > 80 µM (inactive) | IC50 [3]: 3.65 µM (active) | EC50 [11]: 1.24 µM (active) | AC50 (INS1): 1.91 µM (active)

Fc1ccc(CNCc2cccc(Br)c2)cc1
AC50 [12]: 30.2 µM (active)

CCCNc1nc(N2CCOCC2)nc(N2CCOCC2)n1
IC50 (Estrogen receptor beta): > 50 µM (not active)

CCOC(=O)c1ccc(NC(=O)c2ccc(C)c(S(=O)(=O)N3CCOCC3)c2)cc1
AC50 [13]: 5.36 µM (active) | EC50 [14]: 17.3 µM (active)

O=C1Nc2ccccc2C12OCCS2 (stereo unspecified)
IC50 (Estrogen receptor beta): > 50 µM (not active)

O=[N+]([O-])c1cc(O/N=C/c2ccccc2)cc([N+](=O)[O-])c1
IC50 (NADPH oxidase 1): > 17 µM (not active)

COc1cccc(/C=N/NC(=O)c2cc3c(OC)ccc(OC)c3[nH]2)c1O
EC50 [15]: 1.23 µM (active) | IC50 [16]: 16.3 µM (not active) | EC50 (Streptococcus): 3.31 µM (active) | AC50 (INS1): 4.13 µM (active)

C=CCn1c(SCc2c(C)noc2C)nnc1C1COc2ccccc2O1 (stereo unspecified)
IC50 [1]: 24.7 µM (active)

FC(F)(F)Oc1ccc(/C=N/Nc2c(Cl)cncc2Cl)cc1
IC50 (NADPH oxidase 1): > 17 µM (not active)

COc1ccc(C(=O)Nc2ccc3c(c2)OCCO3)cc1
EC50 [17]: < 0.2 µM (active) | EC50 (HT-1080): > 50 µM (not active)

COc1ccc(-c2ccc(-c3noc(-c4cccs4)n3)c(OC)n2)cc1
EC50 (Estrogen receptor): 12.9 µM (active)

CCCOc1ccc(N2C(=O)CC(SC(=NC)Nc3ccc(F)cc3)C2=O)cc1 (stereo unspecified)
Absolute IC50 (XBP1) (X-box-binding protein 1): 10 µM

COC(=O)c1c(-c2ccncc2)csc1NC(=O)c1ccoc1C
IC50 [18]: > 83.3 µM (inactive) | IC50 [19]: > 109 µM (inactive) | EC50 (Estrogen receptor): 23.1 µM (active)
